Assay results from patent US20090054453A1, “Novel Tetralins as 5-HT6 Modulators” (priority 2006, published 2009).

Molecular target: T1, rat striatal 5-HT6 receptors (Rattus norvegicus, UniProt P31388)
T1 construct: Striatal tissue from adult rats (Sprague-Dawley, 320-370 g, B & K Sweden) were dissected out, weighed and homogenized; from tissue; host or cells: rat striatum (Sprague-Dawley) membranes
Assay: [125I]SB258585 binding to rat striatal 5-HT6 receptors
Conditions: competition with [125I]SB258585, rat striatal membranes
Experimental: Method for [125I]SB258585 binding to rat striatal 5-HT6 receptors
[^125I]SB258585 (1) with specific radioactivity 2000 Ci/mmol was purchased from Amersham Biosciences Europe GmbH, Freiburg, Germany. Other chemicals were purchased from commercial sources and were of analytical grade.
Striatal tissue from adult rats (Sprague-Dawley, 320-370 g, B & K Sweden) were dissected out, weighed and homogenized in buffer containing 50 mM Tris-HCl, 4 mM MgCl2, 1 mM EDTA, 10 μM pargyline and protease inhibitor (Complete, Roche Diagnostics) pH 7.4 using an Ultra-Turrax T8 (IKA Labortechnik, Germany). The tissue homogenate was centrifuged at 48 000×g for 10 min and the pellet was resuspended and recentrifuged as above. […]
Saturation binding studies were carried out in duplicate with 1-3 mg w.w. per tube in 0.5 ml buffer (50 mM Tris, 4 mM MgCl2, 100 mM NaCl, 1 mM EDTA, 5 mM ascorbate and 10 μM pargyline at pH 7.4), 0.2 nM [^125I]SB258585 and unlabelled SB258585 to give a final concentration range of 0.23-20 nM (12 conc.). Non-specific binding was determined in the presence of 10 μM methiothepin. […] The radioactivity was determined in a Packard Tri-Carb 2900TR liquid scintillation counter. Data were analyzed by non-linear regression analyses using PRISM 4.00 (GraphPad Software Inc., San Diego, Calif.). […]

T1 sequence (P31388 whole entry): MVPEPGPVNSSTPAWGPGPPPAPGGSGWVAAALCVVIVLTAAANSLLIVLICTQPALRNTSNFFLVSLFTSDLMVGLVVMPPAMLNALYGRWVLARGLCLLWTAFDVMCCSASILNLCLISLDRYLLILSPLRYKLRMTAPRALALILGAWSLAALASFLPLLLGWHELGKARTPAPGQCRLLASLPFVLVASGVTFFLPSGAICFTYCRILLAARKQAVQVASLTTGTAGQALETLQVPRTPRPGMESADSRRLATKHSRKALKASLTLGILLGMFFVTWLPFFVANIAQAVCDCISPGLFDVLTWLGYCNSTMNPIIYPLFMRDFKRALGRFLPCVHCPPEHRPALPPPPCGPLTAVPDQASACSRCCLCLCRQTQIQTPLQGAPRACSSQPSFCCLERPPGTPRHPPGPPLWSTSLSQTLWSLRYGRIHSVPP

Compound `CN1CCN(c2cccc3c2C[C@H](NS(=O)(=O)c2ccc4ccccc4c2)CC3)CC1` [Example 12, N-[(2R)-8-(4-Methylpiperazin-1-yl)-1,2,3,4-tetrahydronaphthalen-2-yl]naphthalene-2-sulfonamide] has a Ki of 0.8 nM.
